Data taken from ChEMBL document CHEMBL1828590 (J Med Chem, 2011).
The source made the active and inactive calls. The rule behind the calls is not given here.

Assays:
MV4-11 [1] = experiment: Antiproliferative activity against human MV4-11 cells; format: functional, cell-based
HCT-116 = experiment: Antitumor activity against human HCT116 cells xenografted in nude BALB/c mouse assessed as tumor growth inhibition at 100 mg/kg, po qd for 21 days; format: functional; settings: HCT-116, 504 h, read-out: TGI
[2] = Terminal half life in nude BALB/c mouse at 10 mg/kg, iv; format: ADME, organism-based; parameters: dose 10 mg/kg, route intravenous; settings: in vivo, read-out: beta t1/2 (converted)
[3] = Apparent permeability from apical to basolateral side of human Caco2 cells; format: ADME, cell-based; settings: Caco-2
[4] = AUC (0 to infinity) in nude BALB/c mouse at 50 mg/kg, po; format: ADME, organism-based; parameters: time infinity, dose 50 mg/kg, route oral; settings: plasma
Mus musculus [5] = experiment: Toxicity in nude BALB/c mouse xenografted with human MV4-11 cells assessed as mortality at 25 mg/kg, po QD for 21 days measured on day 21; format: organism-based; parameters: dose 25 mg/kg, route oral; settings: in vivo, 504 h
[6] = Apparent oral clearance in Beagle dog at 10 mg/kg, po; format: ADME, organism-based, Canis lupus familiaris; parameters: dose 10 mg/kg, route oral; settings: in vivo
Mus musculus [7] = experiment: Toxicity in nude BALB/c mouse xenografted with human A2780 cells assessed as mortality at 50 mg/kg, po QD for 21 days measured on day 9; format: organism-based; parameters: dose 50 mg/kg, route oral; settings: in vivo, 504 h
MV4-11 [8] = experiment: Antitumor activity against human MV4-11 cells xenografted in nude BALB/c mouse assessed as tumor growth inhibition at 25 mg/kg, po qd for 21 days measured on day 21; format: functional; settings: MV4-11, 504 h, read-out: TGI
[9] = Apparent oral clearance in Beagle dog at 2 mg/kg, iv; format: ADME, organism-based, Canis lupus familiaris; parameters: dose 2 mg/kg; settings: in vivo
[10] = molecular target: Stromelysin-1 (Homo sapiens) (UniProt P08254); experiment: Inhibition of MMP3 at 10 uM
[11] = Cmax in Beagle dog at 10 mg/kg, po; format: ADME, organism-based, Canis lupus familiaris; parameters: dose 10 mg/kg, route oral; settings: in vivo
Mus musculus [12] = experiment: Toxicity in nude BALB/c mouse xenografted with human MV4-11 cells assessed as mortality at 50 mg/kg, po QD for 21 days measured on day 21; format: organism-based; parameters: dose 50 mg/kg, route oral; settings: in vivo, 504 h
Mus musculus [13] = experiment: Toxicity in nude BALB/c mouse xenografted with human HCT116 cells assessed as mouse survival at 100 mg/kg, po QD for 21 days measured on day 22; format: organism-based, HCT-116; parameters: dose 100 mg/kg, route oral; settings: in vivo, 504 h
Ramos = experiment: Antiproliferative activity against human Ramos cells; format: functional, cell-based

Stromelysin-1 (Homo sapiens), sequence (P08254 100-477 limits assumed): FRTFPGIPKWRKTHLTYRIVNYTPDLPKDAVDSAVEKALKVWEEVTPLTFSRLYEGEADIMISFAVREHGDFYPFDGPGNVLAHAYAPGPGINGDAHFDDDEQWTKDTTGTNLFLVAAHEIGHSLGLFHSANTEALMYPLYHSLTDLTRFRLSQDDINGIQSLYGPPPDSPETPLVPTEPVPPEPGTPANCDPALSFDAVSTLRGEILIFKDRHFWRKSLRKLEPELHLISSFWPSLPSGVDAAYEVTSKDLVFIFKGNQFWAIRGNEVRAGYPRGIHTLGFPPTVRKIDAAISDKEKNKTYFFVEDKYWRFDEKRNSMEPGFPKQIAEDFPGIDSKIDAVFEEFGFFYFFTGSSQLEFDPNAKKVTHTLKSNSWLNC

Question: What does the source list for CCCCc1nc2cc(/C=C/C(=O)NO)ccc2n1CCN(CC)CC.Cl.Cl?
Answer: IC50 (MV4-11 [1]): 100 nM; inhibition in vivo at 100 mg/kg (HCT-116): 90%; half-life [2]: 2.26 h; Papp A→B [3]: 7.04 ×10⁻⁶ cm/s; AUC(0-inf) [4]: 4.27 µM·h; Activity (Mus musculus [5]): Non-toxic; CL/F [6]: 38.2 mL/min/kg; Activity (Mus musculus [7]): Non-toxic; inhibition in vivo at 25 mg/kg (MV4-11 [8]): 61%; CL/F [9]: 24.2 mL/min/kg; inhibition [10]: inactive; Cmax [11]: 3.56 µM; Activity (Mus musculus [12]): Non-toxic; Activity (Mus musculus [13]): Non-toxic; IC50 (Ramos): 140 nM
